The text below walks through data of ChEMBL document CHEMBL1145284, “Combined target-based and ligand-based drug design approach as a tool to define a novel 3D-pharmacophore model of human A3 adenosine receptor antagonists: pyrazolo[4,3-e]1,2,4-triazolo[1,5-c]pyrimidine derivatives as a key study” (J Med Chem, 2005).

Each structure is given as a SMILES string.

The target in this assay is T1, Adenosine receptor A3 (Homo sapiens, UniProt P0DMS8).
T1 sequence (P0DMS8 whole entry): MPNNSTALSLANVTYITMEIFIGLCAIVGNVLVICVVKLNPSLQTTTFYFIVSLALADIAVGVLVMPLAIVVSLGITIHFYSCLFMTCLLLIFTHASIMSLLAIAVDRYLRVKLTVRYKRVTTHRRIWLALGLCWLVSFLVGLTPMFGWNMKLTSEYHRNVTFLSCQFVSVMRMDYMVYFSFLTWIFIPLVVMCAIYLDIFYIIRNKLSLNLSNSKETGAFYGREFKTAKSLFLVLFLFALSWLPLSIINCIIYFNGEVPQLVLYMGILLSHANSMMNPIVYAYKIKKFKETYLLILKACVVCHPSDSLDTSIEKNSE
Description: Binding affinity for human adenosine A3 receptor
`CC(C)=CCn1cc2c(nc(N)n3nc(-c4ccco4)nc23)n1` showed a Ki of 0.811 µM. As to `CCCCCCCCn1cc2c(nc(NC(=O)Nc3ccc(C)cc3)n3nc(-c4ccco4)nc23)n1`, the Ki was determined as 0.00448 µM. As to `CC(C)(C)NC(=O)Nc1nc2nn(CCc3ccccc3)cc2c2nc(-c3ccco3)nn12`, the Ki was 0.0049 µM. Molecule `CC(C)CCn1cc2c(nc(NC(=O)NC(C)(C)C)n3nc(-c4ccco4)nc23)n1` returned a Ki of 0.039 µM. This Ki is about 8-fold higher than that of the molecule before. For `Cc1ccc(NC(=O)Nc2nc3nn(CCC(C)C)cc3c3nc(-c4ccco4)nn23)cc1`, the Ki was found to be 0.00741 µM.

As for `CCOC(=O)Cc1ccc(NC(=O)Nc2nc3nn(C)cc3c3nc(-c4ccco4)nn23)cc1`, the inhibition constant Ki was 0.00082 µM. This Ki is about 9-fold lower than that of the molecule before. Then `O=C(Nc1nc2nn(CC3CCCCC3)cc2c2nc(-c3ccco3)nn12)NC1CCCCC1`, with 0.0067 µM.

With `NCC(=O)Nc1nc2nn(CCc3ccccc3)cc2c2nc(-c3ccco3)nn12`, the inhibition constant Ki is 0.163 µM.

Consider `CCCCCCCCn1cc2c(nc(NC(=O)NCCCCC)n3nc(-c4ccco4)nc23)n1`, for which the Ki was determined as 0.00783 µM. Then `CC(C)CCn1cc2c(nc(NC(=O)CCCN)n3nc(-c4ccco4)nc23)n1`, with 0.09 µM. Then `CC(C)(C)NC(=O)Nc1nc2nn(CCCc3ccccc3)cc2c2nc(-c3ccco3)nn12`, with 0.065 µM. Then `CCCCCCCCn1cc2c(nc(NC(=O)Nc3ccc(CC(=O)OCC)cc3)n3nc(-c4ccco4)nc23)n1`, with 0.00997 µM; and `CCCCCNC(=O)Nc1nc2nn(CC3CCCCC3)cc2c2nc(-c3ccco3)nn12`, with 0.00398 µM; and `CCOC(=O)Cc1ccc(NC(=O)Nc2nc3nn(CC4CCCCC4)cc3c3nc(-c4ccco4)nn23)cc1`, with 0.00695 µM. In the case of `Nc1nc2nn(CC3CCCCC3)cc2c2nc(-c3ccco3)nn12`, affinity was put at a Ki of 1.72 µM. Molecule `CC(C)CCn1cc2c(nc(NC(=O)NC(C)C)n3nc(-c4ccco4)nc23)n1` registered a Ki of 0.065 µM.

`CCCCCCCCn1cc2c(nc(NC(=O)NC3CCCCC3)n3nc(-c4ccco4)nc23)n1` displayed a Ki of 0.0163 µM. Then `CCCn1cc2c(nc(NC(=O)NC(C)(C)C)n3nc(-c4ccco4)nc23)n1`, with 0.015 µM; and `Cc1ccc(NC(=O)Nc2nc3nn(CC4CCCCC4)cc3c3nc(-c4ccco4)nn23)cc1`, with 0.00594 µM.

With `CC(C)(C)OC(=O)NCCCC(=O)Nc1nc2nn(CCc3ccccc3)cc2c2nc(-c3ccco3)nn12`, the affinity, expressed as Ki, was 1.48 µM. Then `CCCCCCCCn1cc2c(nc(N)n3nc(-c4ccco4)nc23)n1`, with 2.05 µM; and `CC(C)CCn1cc2c(nc(NC(=O)NC3CCCCC3)n3nc(-c4ccco4)nc23)n1`, with 0.0205 µM.

For `CC(C)NC(=O)Nc1nc2nn(CCc3ccccc3)cc2c2nc(-c3ccco3)nn12`, the affinity corresponds to a Ki of 0.009 µM. Then `CCCCCNC(=O)Nc1nc2nn(C)cc2c2nc(-c3ccco3)nn12`, with 0.00195 µM; and `CCCCCNC(=O)Nc1nc2nn(CCC(C)C)cc2c2nc(-c3ccco3)nn12`, with 0.00809 µM. Then `NCCCC(=O)Nc1nc2nn(CCc3ccccc3)cc2c2nc(-c3ccco3)nn12`, with 0.065 µM. The molecule `NCCC(=O)Nc1nc2nn(CCc3ccccc3)cc2c2nc(-c3ccco3)nn12` registered a Ki of 0.08 µM. The Ki values of the last two molecules are within 1.5-fold of each other. In turn, `CCOC(=O)Cc1ccc(NC(=O)Nc2nc3nn(CCC(C)C)cc3c3nc(-c4ccco4)nn23)cc1` had a Ki of 0.0119 µM. `CC(C)NC(=O)Nc1nc2nn(CCCc3ccccc3)cc2c2nc(-c3ccco3)nn12`: the Ki stood at 0.055 µM. Take `CC(C)CCn1cc2c(nc(NC(=O)CCCNC(=O)OC(C)(C)C)n3nc(-c4ccco4)nc23)n1`: the Ki came out at 2.49 µM. `CCCn1cc2c(nc(NC(=O)NC(C)C)n3nc(-c4ccco4)nc23)n1` registered a Ki of 0.021 µM.

One may read the Ki as a measure of affinity in units of concentration, obtained from inhibition or displacement. A low value points to tighter binding.
